A word on the Kd: it is the equilibrium constant for the complex coming apart.

For assay [1], the target named is T1, deoxythymidine diphosphate glucose-4,6-dehydratase (dTGD) (Actinosynnema pretiosum, UniProt A0A290ZDY1).
T1 construct: gene rfbB; recombinant His-tagged, from pET30a in E. coli BL21(DE3)
T1 sequence (A0A290ZDY1 1-330): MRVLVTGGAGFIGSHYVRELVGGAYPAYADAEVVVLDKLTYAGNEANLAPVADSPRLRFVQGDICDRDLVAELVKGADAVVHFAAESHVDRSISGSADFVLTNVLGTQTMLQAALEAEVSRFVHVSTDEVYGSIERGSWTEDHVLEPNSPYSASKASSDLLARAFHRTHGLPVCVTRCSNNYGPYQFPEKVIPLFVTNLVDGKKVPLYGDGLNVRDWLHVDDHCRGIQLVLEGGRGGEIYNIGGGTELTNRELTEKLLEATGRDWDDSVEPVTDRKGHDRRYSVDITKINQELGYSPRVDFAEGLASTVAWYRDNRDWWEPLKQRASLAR
Description: SPR (Biacore 8K, CM5 chip); also enzyme inhibition with KI =[…]. It counts as binding.

In assay [2] the target is T2, flavin-dependent thymidylate synthase (FDTS) (Actinosynnema pretiosum, UniProt A0A290ZCH3).
T2 construct: gene thyX; recombinant His-tagged, from pET30a in E. coli BL21(DE3)
T2 sequence (A0A290ZCH3 1-250): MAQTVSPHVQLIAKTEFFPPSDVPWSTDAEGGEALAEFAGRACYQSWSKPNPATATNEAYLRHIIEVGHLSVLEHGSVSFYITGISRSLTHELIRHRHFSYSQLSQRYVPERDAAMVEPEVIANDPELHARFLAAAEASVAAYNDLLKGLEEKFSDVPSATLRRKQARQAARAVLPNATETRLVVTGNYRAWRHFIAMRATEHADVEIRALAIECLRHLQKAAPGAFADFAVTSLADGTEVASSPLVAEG
As to the kind of experiment: SPR (Biacore 8K, CM5 chip); also NADPH oxidase inhibition with KI =[…]. It counts as binding.

Turning to `COc1cc2cc(c1Cl)N(C)C(=O)C[C@H](OC(=O)C(C)C)[C@]1(C)O[C@H]1[C@H](C)[C@@H]1C[C@@](O)(NC(=O)O1)[C@H](OC)/C=C/C=C(\C)C2` [AP-3, ansamitocin P-3], the Kd is 360 µM in assay [1] and 66.5 µM in assay [2].
